The nature of experiment [1]: DPPH free radical scavenging assay. The format is biochemical. The settings on record: for DPPH IC50: linear regression of % scavenging vs concentration. On the procedure:
According to the Brand-Williams assay DPPH (2, 2-diphenyl-1-picrylhydrazyl) free radical scavenging activity of morin was determined. DPPH and compounds stock solutions (1 mg/mL) were prepared in 100 mL methanol with serial dilutions of […], 62.5, 250, 500, and 1000 µg/mL. After that, 0.1 mL morin was mixed with 3.0 mL DPPH solution and incubated at 23 °C for 30 min. Standard ascorbic acid solution was also prepared in the same way using as a positive control. Finally, absorbance was measured at 517 nm via UV spectrophotometer. Results were taken in a set of three experiments and represented as mean ± SEM. Percent free radicals scavenging potential was calculated according to the following Equation (1): (1) % Free radicals Scavenging potential = Blank sample absorbance−sample absorbance/Blank sample absorbance×100
(§1) All the in vitro and in vivo experiments were analyzed in three replicates and determined as mean ± SEM. Student’s t-test and one way ANOVA followed by Dunnett’s post hoc multiple comparison test was used. p ≤ 0.05 were considered as significant. Linear regression analysis was used to calculate the IC50 value for % DPPH, ABTS, α-amylase, and α-glucosidase inhibition against the different concentrations of the test samples by means of Excel program 2007.

Experiment [2] concerns the target Type-I α-glucosidase (Baker Yeast) (Saccharomyces cerevisiae, UniProt P53341). In words: In vitro α-glucosidase inhibition assay (PNPG). In kind it is biochemical. To be noted: read-out: % α-Glucosidase Inhibition Mean ± SEM.
Description: Chemicals such as Tween-80 (Scharlau-chem., Barcelona, Spain), normal saline solution (Utsoka Pharma, Las Bela Baluchistan, Pakistan), lipid profile tests kits (Human, Hamburg, Germany), renal profile tests kits, and antioxidant enzymes kits (Biomed: Germany; diagnostic) were used in in vivo study. Mueller Hinton (MH) agar and broth (Merck, Modderfontein, South Africa) were used to culture the bacterial strains. Various solvents such as methanol, n-hexane, ethyl acetate, and chloroform (Merck, Darmstadt, Germany) were also used in this study.
The α-glucosidase inhibition potential of morin was determined according to the reported method with minor changes. The reaction mixture was prepared by taking 100 μL α-glucosidase (0.5 unit/mL), 600 μL phosphate buffer (0.1 M; pH 6.9), and 50 μL of isolated compounds (morin, phloroglucinol, and 1-hexyl benzene) with serial dilutions of 31.05, 62.5, 125, 250, 500 and 1000 µg/mL. All the reaction mixtures were incubated at 37 °C for 15 min. The enzymatic reactions were started by adding 100 μL substrate (p-nitro-phenyl-α-D-glucopyranoside) solution (5 mM) formed in phosphate buffer (0.1 M; pH 6.9), finally incubated at 37 °C for 15 min. The reaction was completed by adding sodium carbonate (400 μL; 0.2 M) solution and then at 405 nm absorbance was measured. The blank solution was prepared containing only isolated compounds without α-glucosidase. Percent α-glucosidase inhibition potential was calculated using Equation (3): (3) % α − glucosidase Inhibition =control absorbance−sample absorbance/control absorbance×100
as §1

A further experiment relates to Bacillus cereus. In words: Broth dilution MIC determination. In kind it is cell-based. The settings on record: 37 °C, 24 h, read-out: Minimum Inhibitory Concentrations. On the procedure: (§2) Antibacterial potential of isolated compound was investigated against both Gram-positive and Gram-negative bacterial strains; Escherichia coli, Bacillus cereus, Salmonella typhi, Klebsiella pneumonia, Pseudomonas aeruginosa and Proteus mirabilis. Bacterial strains were provided by the Department of Pharmacy, University of Malakand, Khyber Pakhtunkhwa, Pakistan, and were kept at 4 °C in agar slants in freeze-dried condition until further use.
(§3) Both Gram-positive and Gram-negative bacterial strains Escherichia coli, Bacillus cereus, Salmonella typhi, Klebsiella pneumonia, Pseudomonas aeruginosa and Proteus mirabilis organism viable count per mL in the stock suspension was determined using surface viable counting technique. About 10^8–10^9 colony-forming units (CFU) per mL were used as inoculum in subsequent experiments. A fresh stock suspension was used each time.
(§4) Minimum inhibitory concentrations (MICs) of morin, phloroglucinol, and 1-hexyl benzene were determined using broth dilution method, following the Clinical and Laboratory Standards Institute (CLSI) guidelines. Stock solutions of morin, phloroglucinol, and 1-hexyl benzene were prepared in dimethylsulphoxide (DMSO). The serial dilutions from the stock solution were made ranging from 500 to 3.90 μg/mL using Mueller–Hinton broth. Sterile centrifuge tubes were arranged in sets of rows for each bacterial inoculum to cover the different concentration of isolated compounds in triplicate. The standard bacterial stock suspension 10^8–10^9 CFU/mL, in 100 μL were inoculated into each tube. A sterility control tube and a growth control tube were also incubated (for each strain). The tubes were incubated at 37 °C for 24 h. After incubation, 40 μL of a 0.4 mg/mL solution of para iodonitrotetrazolium (INT) chloride was added to each tube as an indicator of microbial growth. […] The evaluation for the inhibition of microbial growth was based on the color change of INT to pink, while no color change indicates the absence of growth. The MIC is the lowest concentration of the compounds at which there is no visible growth in the tubes. The concentration that inhibited bacterial growth completely (the first clear tube) was taken as the MIC value. Experiments were performed in triplicate and mean values are presented.
(§5) In order to, determine the sensitivity of the bacterial strains, positive control experiments were conducted, taking ampicillin at a starting concentration of 0.10 mg/mL in sterile water while the final concentrations for these experiments ranged from 25.00 to 0.19 μg/mL. A negative control experiment was conducted using only DMSO.

A further experiment relates to Escherichia coli. In words: Broth dilution MIC determination. The format is cell-based. To be noted: 37 °C, 24 h, read-out: Minimum Inhibitory Concentrations. Here is the method:
as §2, §3, §4, §5

The next experiment concerns Klebsiella pneumonia. Description: Broth dilution MIC determination. In kind it is cell-based. The settings on record: Klebsiella pneumoniae, 37 °C, 24 h, read-out: Minimum Inhibitory Concentrations. On the procedure: as §2, §3, §4, §5
The test system of another experiment is Proteus mirabilis. Description: Broth dilution MIC determination. The format is cell-based. The settings on record: 37 °C, 24 h, read-out: Minimum Inhibitory Concentrations. On the procedure: as §2, §3, §4, §5
The test system of the next experiment is Pseudomonas aeruginosa. In words: Broth dilution MIC determination. The settings on record: 37 °C, 24 h, read-out: Minimum Inhibitory Concentrations. In kind it is cell-based. Here is the method: as §2, §3, §4, §5

The source of these data is paper PMC8348310, “Antioxidants Isolated from Elaeagnus umbellata (Thunb.) Protect against Bacterial Infections and Diabetes in Streptozotocin-Induced Diabetic Rat Model” (Molecules, 2021).

≈ marks a conversion by molar mass, not a printed value. Where “and” joins values, the source holds several entries; their conditions need not be identical. Equal values may be shown once.

Sequence of Type-I α-glucosidase (Baker Yeast) (P53341 whole entry): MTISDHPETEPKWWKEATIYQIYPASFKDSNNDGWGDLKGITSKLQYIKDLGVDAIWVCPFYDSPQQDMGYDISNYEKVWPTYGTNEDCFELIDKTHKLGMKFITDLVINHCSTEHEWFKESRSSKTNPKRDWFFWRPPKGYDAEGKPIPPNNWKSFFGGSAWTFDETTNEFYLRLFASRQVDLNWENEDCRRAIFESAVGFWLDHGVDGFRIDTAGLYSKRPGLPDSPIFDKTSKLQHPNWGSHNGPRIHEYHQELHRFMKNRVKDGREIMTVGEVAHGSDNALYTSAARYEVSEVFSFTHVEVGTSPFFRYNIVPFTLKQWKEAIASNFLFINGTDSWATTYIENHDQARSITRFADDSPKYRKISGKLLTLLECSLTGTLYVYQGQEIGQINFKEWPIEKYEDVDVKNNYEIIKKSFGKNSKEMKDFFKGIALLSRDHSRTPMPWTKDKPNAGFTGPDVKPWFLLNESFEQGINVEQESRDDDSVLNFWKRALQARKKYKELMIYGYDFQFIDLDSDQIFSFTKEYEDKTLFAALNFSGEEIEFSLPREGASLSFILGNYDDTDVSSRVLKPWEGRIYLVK

Regarding `CCCCCCc1ccccc1` [1-Hexyl benzene, 1-hexylbenzene], the “% DPPH Scavenging Mean ± SEM” value in experiment [1] (31.05 µg/mL) is on record as 28 ± 1.1 %; in experiment [1] (62.5 µg/mL) it was 35 ± 0.4 %; in experiment [1] (250 µg/mL), 46 ± 0.5 %; in experiment [1] (500 µg/mL), 53 ± 2.1 %; in experiment [1] (1000 µg/mL) it was 59 ± 1.5 %. Also, the “DPPH IC50” value in experiment [1] amounted to 118 µg/mL. Moreover, the inhibition at 31.05 µg/mL in experiment [2] came to 28 ± 1.2%. Besides, the inhibition at 62.5 µg/mL in experiment [2] came out at 32 ± 0.4%. In experiment [2], the inhibition at 125 µg/mL amounted to 39 ± 1.1%. For the same compound, in experiment [2], the inhibition at 250 µg/mL was 45 ± 0.5%. In addition, in experiment [2], the inhibition at 500 µg/mL came out at 50 ± 1.2%. In experiment [2], the inhibition at 1000 µg/mL stood at 58 ± 2.1%. Besides, the MIC in the experiment with Bacillus cereus is 135 ± 1.5 µg/mL (≈ 832 µM); with Escherichia coli, 95 ± 2.1 µg/mL (≈ 585 µM); with Klebsiella pneumonia, 178 ± 2.2 µg/mL (≈ 1100 µM); in the experiment on Proteus mirabilis it was 250 ± 1.2 µg/mL (≈ 1540 µM); in the experiment on Pseudomonas aeruginosa it was 200 ± 1.5 µg/mL (≈ 1230 µM).
With `O=c1c(O)c(-c2ccc(O)cc2O)oc2cc(O)cc(O)c12` [Morin, 2-(2,4-Dihydroxyphenyl)-3,5,7-trihydroxychromen-4-one], the “% DPPH Scavenging Mean ± SEM” value was 54 ± 0.5 % in experiment [1] (31.05 µg/mL); 59 ± 1.3 % in experiment [1] (62.5 µg/mL); 76 ± 1.0 % in experiment [1] (250 µg/mL); 83 ± 0.5 ^ns % in experiment [1] (500 µg/mL); 88± 1.1% and 88 ± 1.1 ^ns % in experiment [1] (1000 µg/mL). The “DPPH IC50” value in experiment [1] is 37 µg/mL. Besides, the inhibition at 31.05 µg/mL in experiment [2] was found to be 42 ± 1.4%. In addition, in experiment [2], the inhibition at 62.5 µg/mL is 48 ± 0.3%. The inhibition at 125 µg/mL in experiment [2] came to 52 ± 0.5%. Further, the inhibition at 250 µg/mL in experiment [2] was 59 ± 1.4%. Besides, the inhibition at 500 µg/mL in experiment [2] amounted to 66 ± 0.4%. In addition, the inhibition at 1000 µg/mL in experiment [2] was found to be 79 ± 1%. Moreover, the MIC in the experiment with Bacillus cereus came to 21 ± 1.2 µg/mL (≈ 69.5 µM); in the experiment on Escherichia coli it was 25 ± 1.1 µg/mL (≈ 82.7 µM); in the experiment with Klebsiella pneumonia, 30 ± 1.4 µg/mL (≈ 99.3 µM); in the experiment on Proteus mirabilis, 55 ± 1.4 µg/mL (≈ 182 µM); in the experiment on Pseudomonas aeruginosa it was 44 ± 1.5 µg/mL (≈ 146 µM).
For `Oc1cc(O)cc(O)c1` [Phloroglucinol, Benzene-1,3,5-triol], the “% DPPH Scavenging Mean ± SEM” value was 32 ± 0.5 % in experiment [1] (31.05 µg/mL); 36 ± 1.1 % in experiment [1] (62.5 µg/mL); 51 ± 1.0 % in experiment [1] (250 µg/mL); 57 ± 1.0 % in experiment [1] (500 µg/mL); 67 ± 0.4 % in experiment [1] (1000 µg/mL). Moreover, the “DPPH IC50” value in experiment [1] was found to be 105 µg/mL. The inhibition at 31.05 µg/mL in experiment [2] was 27 ± 1%. In experiment [2], the inhibition at 62.5 µg/mL turned out to be 30 ± 1.4%. The inhibition at 125 µg/mL in experiment [2] is 37 ± 1.5%. The inhibition at 250 µg/mL in experiment [2] was 43 ± 0.4%. Also, the inhibition at 500 µg/mL in experiment [2] stood at 48 ± 0.5%. Further, the inhibition at 1000 µg/mL in experiment [2] turned out to be 55 ± 2.1%. The MIC in the experiment on Bacillus cereus was 105 ± 1.6 µg/mL (≈ 833 µM); in the experiment with Escherichia coli, 80 ± 1.4 µg/mL (≈ 634 µM); in the experiment with Klebsiella pneumonia it was 166 ± 1.5 µg/mL (≈ 1320 µM); in the experiment on Proteus mirabilis, 205 ± 1.5 µg/mL (≈ 1630 µM); in the experiment with Pseudomonas aeruginosa, 180 ± 2.1 µg/mL (≈ 1430 µM).
